The nature of experiment [1]: Locomotor activity after cerebral ischemia. In kind it is in vivo, rat. The settings on record: vs other groups. On the procedure:
(§1) Adult male Sprague-Dawley rats (weight 200 g) were used in this study. All surgical procedures were performed using sterile/aseptic techniques in accordance with Institutional guidelines. Rats were anesthetized with chloral hydrate (0.4 g/kg IP) and subjected to cerebral ischemia. Ligation of the right middle cerebral artery (MCA) and bilateral common carotids arteries (CCAs) was performed by methods described previously (Shyu et al. 2005). The CCAs were clamped with non-traumatic arterial clips. The right MCA was ligated with a 10-0 nylone suture. After 90 min of ischemia, the suture on the MCA and the arterial clips on the CCAs were removed to allow reperfusion. Core body temperature was monitored with a thermistor probe (Hewlett-Packard™ Model 21090A probe, Hewlett-Packard Company™, Andover, Mass.), and maintained at 37° C. with a heating pad during anesthesia. […]
Behavioral assessments were measured on day 28 after stroke. […] The baseline-test scores were recorded in order to normalize those taken after cerebral ischemia. The elevated body swing test (EBST) was used to assess body asymmetry after MCA ligation and evaluated quantitatively as previously described (Shyu et al. 2004). […] The frequency of initial head swing contra-lateral to the ischemic side was counted in twenty continuous tests and was normalized, as follows: % recovery=[1−(lateral swings in twenty tests−10)/10×100%. […]

Experiment [2] deals with PTEN. In words: Immunostaining of endogenous PTEN: nuclear translocation in cultured neurons with NMDA. The class given is cell-based, rat. The note with it: peptide 10 uM, NMDA stimulation. On the procedure:
(§2) Dissociated cultures of rat cortical or hippocampal neurons were prepared from 18-d-old Sprague Dawley rat embryos as described previously (Mielke and Wang 2005). To obtain mixed cultures enriched with neurons, uridine (10 μM) and 5-Fluor-T-deoxyuridine (10 μM) were added to the culture medium at 3 d in vitro (DIV) and maintained for 48 h to inhibit non-neuronal cell proliferation before the cultures were returned to the normal culture medium. Mature neurons (12-14 DIV) were used for experiments.
In order to induce excitotoxicity, 12-14 DIV cultured neurons were washed and transferred to Mg2+-free extracellular solution (ECS) containing the following (in mM): 25 HEPES acid, 140 NaCl, 33 glucose, 5.4 KCl, and 1.3 CaCl2, with pH 7.35 and osmolarity 320-330 mOsm. ECS and subjected to NMDA-induced excitotoxicity (20 μM NMDA, 10 μM glycine, 60 min at room temperature) or any other experimental conditions as indicated in the texts. Cells were then washed twice with normal ECS, and returned to the original growth conditions until additional assay.

Experiment [3] is described as follows: Infarct volume by MRI after cerebral ischemia (MCA/CCA ligation). The class given is in vivo, rat. The note with it: for infarct volume assessed by MRI: seven days after cerebral ischemia; for Mean (infarct volume): given 6 hours after ischemia onset, n=8. On the procedure: as §1, with “anesthesia. After recovery from anesthesia, rat body temperature was maintained at 37° C. with a heat lamp.” for “anesthesia.”
MRI was performed on rats under anesthesia in an imaging system (R4, GE™) at 3.0 T. Brains were scanned in 6 to 8 coronal image slices, each 2 mm thick without any gaps. T2-weighted imaging (T2WI) pulse sequences were obtained with the use of a spin-echo technique (repetition time, 4000 ms; echo time, 105 ms) and were captured sequentially for each animal at day 7 after cerebral ischemia. To measure the infarction area in the right cortex, we subtracted the noninfarcted area in the right cortex from the total cortical area of the left hemisphere (Shyu et al. 2004). The area of infarct was drawn manually from slice to slice, and the volume was then calculated by internal volume analysis software (Voxtool™, General Electric™).

Experiment [4] relates to PTEN. In words: Western blotting of nuclear fractions from cultured neurons: PTEN nuclear translocation. The note with it: NMDA stimulation. The class given is cell-based, rat. On the procedure:
as §2
In order to induce excitotoxicity, 12-14 DIV cultured neurons were washed and transferred to Mg2+-free extracellular solution (ECS) containing the following (in mM): 25 HEPES acid, 140 NaCl, 33 glucose, 5.4 KCl, and 1.3 CaCl2, with pH 7.35 and osmolarity 320-330 mOsm. […]
For western blotting, 10 μg of the nuclear extract or 40 μg of total cell lysate (solubilized by 1% SDS, 1 mM EGTA, 1 mM EDTA, 1 mM DTT, 2 mM sodium orthovanadate, and protease inhibitors cocktail in PBS) from each treatment condition was separated with SDS-PAGE, transferred onto a polyvinylidene difluoride (PVDF) membrane, and probed with the relevant antibodies. […] Band intensities were quantified using NIH ImageJ™ software and normalized to the quantity of a nuclear marker or β-tubulin in each sample lane.
(In general: A western blot detects proteins with antibodies after separation by electrophoresis.)

Results on 1 substance are retold here after US9127079B2, “Inhibitors of phosphatase and tensin homolog (PTEN) conjugates” (THE UNIVERSITY OF BRITISH COLUMBIA, priority 2009, dated 2015).

Take “KEIVSRNKRRYQED-YGRKKRRQRRR (KEIVSRNKRRYQEDYGRKKRRQRRR; PTEN K13 interference peptide conjugated to TAT protein transduction domain) [Peptide-K13]”: the “locomotor activities (vertical activity, vertical time, number of vertical movements)” value in experiment [1] (given 2 hours after ischemia) and in experiment [1] (given 6 hours after ischemia) was “significantly better” each time. Besides, the “PTEN nuclear translocation (endogenous PTEN immunostaining)” value in the experiment with PTEN [2] is reported as “prevented PTEN nuclear translocation”. Besides, the “decrease in infarct volume as compared to the control” value in experiment [3] (1.0 mg/kg intravenous) and in experiment [3] (10 mg/kg intravenous) was “greater than 50%” each time. The “infarct volume assessed by MRI” value in experiment [3] (i.v. 8.4 mg/kg given 2 hours after ischemia onset) and in experiment [3] (i.v. 8.4 mg/kg given 6 hours after ischemia onset) was “significantly reduced” throughout. In addition, the “Mean (infarct volume)” value in experiment [3] (intravenous 0.1 mg/kg) worked out at 160.900; in experiment [3] (intravenous 1.0 mg/kg) it was 72.850; in experiment [3] (intravenous 10 mg/kg), 63.700. Further, the “PTEN nuclear translocation (western blotting of nuclear fractions)” value in the experiment on PTEN [4] is recorded as “prevents PTEN nuclear translocation”.
